# Values quoted from earlier work, collected in patent US6365176B1, “Nutritional supplement for patients with type 2 diabetes mellitus for lipodystrophy” (Functional Foods, Inc., priority 2000, dated 2002).
# Tests used:
# [1] = in vivo
# [2] = doses between 200 and 1,000 μg daily
Compound,glycemic index (GI) [1],fasting plasma glucose concentrations [2]
O=C(CO)[C@@H](O)[C@H](O)[C@H](O)CO [Fructose],32,–
chromium picolinate [Chromium as picolinate],–,beneficial effect
